For this experiment, the target named is T1, PRMT5 (protein arginine methyl transferase 5) (Homo sapiens, UniProt O14744).
T1 construct: human recombinant PRMT5/MEP50 complex; with MEP50
The experiment can be described thus: scintillation proximity radiometric methyltransferase assay (3H-SAM, histone H4 peptide); jump dilution. The class given is biochemical. (In a scintillation proximity assay essentially only radioactivity close to the scintillant gives light.)

pIC50: −log10 of the molar value.

T1 sequence (O14744 2-637): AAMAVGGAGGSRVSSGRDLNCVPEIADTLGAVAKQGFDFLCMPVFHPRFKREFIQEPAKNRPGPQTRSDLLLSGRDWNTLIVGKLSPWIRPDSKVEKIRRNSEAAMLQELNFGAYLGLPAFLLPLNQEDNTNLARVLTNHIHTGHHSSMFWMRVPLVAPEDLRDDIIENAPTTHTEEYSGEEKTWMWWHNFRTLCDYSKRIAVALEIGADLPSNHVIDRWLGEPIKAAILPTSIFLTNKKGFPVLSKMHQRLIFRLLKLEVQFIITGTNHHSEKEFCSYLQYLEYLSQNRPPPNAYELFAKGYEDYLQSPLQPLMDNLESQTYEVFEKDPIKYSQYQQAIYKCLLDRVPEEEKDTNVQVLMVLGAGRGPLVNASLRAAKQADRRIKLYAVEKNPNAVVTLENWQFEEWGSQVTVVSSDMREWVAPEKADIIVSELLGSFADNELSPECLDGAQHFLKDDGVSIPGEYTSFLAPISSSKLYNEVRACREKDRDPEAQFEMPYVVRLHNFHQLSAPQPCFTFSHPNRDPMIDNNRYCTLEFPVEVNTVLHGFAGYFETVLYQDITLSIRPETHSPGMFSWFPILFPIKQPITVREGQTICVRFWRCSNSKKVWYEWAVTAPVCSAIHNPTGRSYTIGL
T1 sequence (Q9BQA1 whole entry partner): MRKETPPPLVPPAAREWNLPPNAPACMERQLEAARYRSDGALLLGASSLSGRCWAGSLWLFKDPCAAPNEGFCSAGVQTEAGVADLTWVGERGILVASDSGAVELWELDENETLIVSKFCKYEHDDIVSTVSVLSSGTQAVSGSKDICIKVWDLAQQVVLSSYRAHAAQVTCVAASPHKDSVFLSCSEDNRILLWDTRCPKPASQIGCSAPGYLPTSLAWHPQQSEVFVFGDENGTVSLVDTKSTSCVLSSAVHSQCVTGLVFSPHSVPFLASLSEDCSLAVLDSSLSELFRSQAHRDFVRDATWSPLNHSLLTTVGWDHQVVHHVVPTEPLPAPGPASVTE

In general, pIC50 refers to the IC50 on a negative log10 scale, so that one unit is a factor of ten. PRT543 had a pIC50 of 7.97.

(Values after PMC11724466, “PRMT5 inhibition has a potent anti-tumor activity against adenoid cystic carcinoma of salivary glands” (Journal of Experimental & Clinical Cancer Research : CR, 2025).)
